According to publication PMC8887546, “Design and Synthesis of Brain Penetrant Glycopeptide Analogues of PACAP With Neuroprotective Potential for Traumatic Brain Injury and Parkinsonism” (Frontiers in drug discovery, 2022):

Tests used:
Type in all cases: cell-based
human PAC1 receptor = target: T1, human PAC1 receptor (Homo sapiens, UniProt P41586); assay: cAMP stimulation in CHO cells expressing PAC1; conditions: for Emax: CHO
T1 construct: expressed in transfected cells; host or cells: CHO cells (G418 selection)
T1 sequence (P41586 21-468): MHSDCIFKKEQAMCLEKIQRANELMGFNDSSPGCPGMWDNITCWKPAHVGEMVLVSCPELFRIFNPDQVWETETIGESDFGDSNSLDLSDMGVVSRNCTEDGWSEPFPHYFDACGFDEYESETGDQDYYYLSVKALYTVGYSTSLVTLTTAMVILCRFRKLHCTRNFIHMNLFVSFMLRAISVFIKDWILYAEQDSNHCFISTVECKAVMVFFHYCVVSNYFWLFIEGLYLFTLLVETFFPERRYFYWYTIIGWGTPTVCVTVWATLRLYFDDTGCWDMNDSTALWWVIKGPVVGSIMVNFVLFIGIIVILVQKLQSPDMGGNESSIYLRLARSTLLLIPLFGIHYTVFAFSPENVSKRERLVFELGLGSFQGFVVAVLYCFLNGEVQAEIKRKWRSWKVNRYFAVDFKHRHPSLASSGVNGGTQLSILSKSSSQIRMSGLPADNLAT
Procedure: (§1) Briefly, human PAC1, VPAC1, and VPAC2 receptors expressed in CHO cells were used for all experiments. Cells were grown in 50:50 DMEM-F12 medium with 10% heat-inactivated fetal bovine serum, 1X penicillin-streptomycin supplement, and 500 μg/ml G418 (neomycin) to maintain selection (all from ThermoFisher) at 37°C with 5% CO2 atmosphere. For the cAMP assay, cells were seeded at 20,000 cells/well in a 96 well plate, recovered overnight, then serum starved for 4 h. The cells were then incubated with 500 μM IBMX for 20 min, followed by agonist concentration curves in 500 μM IBMX media for 10 min. The reaction was terminated, boiled, then collected, followed by competition with 7 μg of bovine protein kinase A (Sigma-Aldrich) and ∼1 pmol of ^3H-cAMP (PerkinElmer). The assay was incubated at room temp for 1 h, then collected onto GF/B filter plates and the data read using a MicroBeta2 scintillation counter (PerkinElmer).

human VPAC1 receptor = target: T2, human VPAC1 receptor (Homo sapiens, UniProt P32241); assay: cAMP stimulation in CHO cells expressing VPAC1; conditions: for Emax: CHO, read-out: VPAC1 Emax; for Receptor selectivity ratio VPAC1/PAC1: ratio of cAMP EC50 values; for EC50: read-out: VPAC1 EC50
T2 construct: expressed in transfected cells; host or cells: CHO cells (G418 selection)
T2 sequence (P32241 31-457): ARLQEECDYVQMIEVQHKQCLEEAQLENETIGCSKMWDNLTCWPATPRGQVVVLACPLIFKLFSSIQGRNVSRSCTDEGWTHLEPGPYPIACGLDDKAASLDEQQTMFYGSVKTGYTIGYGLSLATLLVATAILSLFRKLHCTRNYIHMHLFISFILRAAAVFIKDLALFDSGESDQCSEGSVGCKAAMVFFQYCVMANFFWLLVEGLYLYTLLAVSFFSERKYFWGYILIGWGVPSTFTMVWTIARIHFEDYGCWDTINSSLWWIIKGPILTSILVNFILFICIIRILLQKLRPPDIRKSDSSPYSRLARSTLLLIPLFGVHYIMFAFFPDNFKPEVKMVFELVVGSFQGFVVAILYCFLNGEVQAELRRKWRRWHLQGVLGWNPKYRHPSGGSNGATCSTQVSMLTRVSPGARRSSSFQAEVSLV

human VPAC2 receptor = target: T3, human VPAC2 receptor (Homo sapiens, UniProt P41587); assay: cAMP stimulation in CHO cells expressing VPAC2; conditions: for Emax: CHO; for Receptor selectivity ratio VPAC2/PAC1 / Receptor selectivity ratio VPAC2/VPAC1: ratio of cAMP EC50 values
T3 construct: expressed in transfected cells; host or cells: CHO cells (G418 selection)
T3 sequence (P41587 24-438): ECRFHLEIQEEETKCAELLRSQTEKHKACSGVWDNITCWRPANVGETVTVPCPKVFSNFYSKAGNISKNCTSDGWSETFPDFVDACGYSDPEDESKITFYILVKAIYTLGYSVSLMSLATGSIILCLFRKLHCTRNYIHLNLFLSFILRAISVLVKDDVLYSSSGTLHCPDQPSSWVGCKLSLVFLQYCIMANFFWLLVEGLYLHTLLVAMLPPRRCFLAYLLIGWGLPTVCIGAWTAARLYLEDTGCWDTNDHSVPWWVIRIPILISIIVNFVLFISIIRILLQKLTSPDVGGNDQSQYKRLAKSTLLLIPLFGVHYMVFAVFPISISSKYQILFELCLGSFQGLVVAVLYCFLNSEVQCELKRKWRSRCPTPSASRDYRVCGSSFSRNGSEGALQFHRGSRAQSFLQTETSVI
Procedure: as §1

| SMILES | Emax (human PAC1 receptor) | Emax (human VPAC1 receptor) | Emax (human VPAC2 receptor) | EC50 (human PAC1 receptor) | Receptor selectivity ratio VPAC1/PAC1 (human VPAC1 receptor) | EC50 (human VPAC1 receptor) | EC50 (human VPAC2 receptor) | Receptor selectivity ratio VPAC2/PAC1 (human VPAC2 receptor) | Receptor selectivity ratio VPAC2/VPAC1 (human VPAC2 receptor) |
| --- | --- | --- | --- | --- | --- | --- | --- | --- | --- |
| CC[C@H](C)[C@H](NC(=O)CNC(=O)[C@H](CC(=O)O)NC(=O)[C@H](CO)NC(=O)[C@@H](N)Cc1c[nH]cn1)C(=O)N[C@@H](Cc1ccccc1)C(=O)N[C@H](C(=O)N[C@@H](CC(=O)O)C(=O)N[C@@H](CO)C(=O)N[C@@H](Cc1ccc(O)cc1)C(=O)N[C@@H](CO)C(=O)N[C@@H](CCCNC(=N)N)C(=O)N[C@@H](Cc1ccc(O)cc1)C(=O)N[C@@H](CCCNC(=N)N)C(=O)N[C@@H](CCCCN)C(=O)N[C@@H](CCC(N)=O)C(=O)N[C@@H](CC(C)C)C(=O)N[C@@H](C)C(=O)N[C@H](C(=O)N[C@@H](CCCCN)C(=O)N[C@@H](CCCCN)C(=O)N[C@@H](Cc1ccc(O)cc1)C(=O)N[C@@H](CC(C)C)C(=O)N[C@@H](C)C(=O)N[C@@H](C)C(=O)N[C@H](C(=O)N[C@@H](CC(C)C)C(=O)N[C@@H](CO[C@@H]1O[C@H](CO[C@H]2O[C@H](CO)[C@H](O)[C@H](O)[C@H]2O)[C@@H](O)[C@H](O)[C@H]1O)C(N)=O)C(C)C)C(C)C)[C@@H](C)O [Compound 2LS98Mel] | 99% | 102% | 86% | 0.57 nM | 0.96 | 0.55 nM | 9.4 nM | 16.49 | 17.09 |
| CCC[C@H](NC(=O)[C@H](CCC(N)=O)NC(=O)[C@H](CCCCN)NC(=O)[C@H](CCCNC(=N)N)NC(=O)[C@H](Cc1ccc(O)cc1)NC(=O)[C@H](CCCNC(=N)N)NC(=O)[C@H](CO)NC(=O)[C@H](Cc1ccc(O)cc1)NC(=O)[C@H](CO)NC(=O)[C@H](CC(=O)O)NC(=O)[C@@H](NC(=O)[C@H](Cc1ccccc1)NC(=O)[C@@H](NC(=O)[C@@H](C)NC(=O)[C@H](CC(=O)O)NC(=O)[C@@H](CO)NC(=O)[C@H](Cc1c[nH]cn1)NC(C)=O)[C@@H](C)CC)[C@@H](C)O)C(=O)N[C@@H](C)C(=O)N[C@H](C(=O)N[C@@H](CCCCN)C(=O)N[C@@H](CCCCN)C(=O)N[C@@H](Cc1ccc(O)cc1)C(=O)N[C@@H](CC(C)C)C(=O)N[C@@H](C)C(=O)N[C@@H](C)C(=O)N[C@H](C(=O)N[C@@H](CC(C)C)C(=O)N[C@@H](CO[C@@H]1O[C@H](CO)[C@@H](O)[C@H](O)[C@H]1O)C(N)=O)C(C)C)C(C)C [Ac-CRA3021] | 96% | 111% | 93% | – | – | – | – | – | – |

More lines, main results first:

| Emax (human PAC1 receptor) | Emax (human VPAC1 receptor) | Emax (human VPAC2 receptor) | EC50 (human PAC1 receptor) | Receptor selectivity ratio VPAC1/PAC1 (human VPAC1 receptor) | EC50 (human VPAC1 receptor) | EC50 (human VPAC2 receptor) | SMILES | Receptor selectivity ratio VPAC2/PAC1 (human VPAC2 receptor) | Receptor selectivity ratio VPAC2/VPAC1 (human VPAC2 receptor) |
| --- | --- | --- | --- | --- | --- | --- | --- | --- | --- |
| 89% | 107% | 112% | – | – | – | – | CCC[C@H](NC(=O)[C@H](CCC(N)=O)NC(=O)[C@H](CCCCN)NC(=O)[C@H](CCCNC(=N)N)NC(=O)[C@H](Cc1ccc(O)cc1)NC(=O)[C@H](CCCNC(=N)N)NC(=O)[C@H](CO)NC(=O)[C@H](Cc1ccc(O)cc1)NC(=O)[C@H](CO)NC(=O)[C@H](CC(=O)O)NC(=O)[C@@H](NC(=O)[C@H](Cc1ccccc1)NC(=O)[C@@H](NC(=O)[C@H](C)NC(=O)[C@H](CC(=O)O)NC(=O)[C@@H](CO)NC(=O)[C@@H](N)Cc1c[nH]cn1)[C@@H](C)CC)[C@@H](C)O)C(=O)N[C@@H](C)C(=O)N[C@H](C(=O)N[C@@H](CCCCN)C(=O)N[C@@H](CCCCN)C(=O)N[C@@H](Cc1ccc(O)cc1)C(=O)N[C@@H](CC(C)C)C(=O)N[C@@H](C)C(=O)N[C@@H](C)C(=O)N[C@H](C(=O)N[C@@H](CC(C)C)C(=O)N[C@@H](CO[C@@H]1O[C@H](CO)[C@@H](O)[C@H](O)[C@H]1O)C(N)=O)C(C)C)C(C)C [CRA3010] | – | – |
| -79% | 93% | – | > 250 nM | – | 5.9 nM | > 2500 nM | CCC[C@H](NC(=O)[C@H](CCC(N)=O)NC(=O)[C@H](CCCCN)NC(=O)[C@H](CCCNC(=N)N)NC(=O)[C@H](Cc1ccc(O)cc1)NC(=O)[C@H](CCCNC(=N)N)NC(=O)[C@H](CO)NC(=O)[C@H](Cc1ccc(O)cc1)NC(=O)[C@H](CO)NC(=O)[C@H](CC(=O)O)NC(=O)[C@@H](NC(=O)[C@H](Cc1ccccc1)NC(=O)[C@@H](NC(=O)CNC(=O)[C@H](CC(=O)O)NC(=O)[C@@H](CO)NC(=O)[C@@H](N)Cc1c[nH]cn1)[C@@H](C)CC)[C@@H](C)O)C(=O)N[C@@H](C)C(=O)N[C@H](C(=O)N[C@@H](CCCCN)C(=O)N[C@@H](CCCCN)C(=O)N[C@@H](Cc1ccc(O)cc1)C(=O)N[C@@H](CC(C)C)C(=O)N[C@@H](C)C(=O)N[C@@H](C)C(=O)N[C@@H](CO[C@@H]1O[C@H](CO)[C@@H](O)[C@H](O)[C@H]1O)C(=O)N[C@@H](CC(C)C)C(N)=O)C(C)C [CRA3002] | – | – |
| 90% | 103% | 74% | 32.3 nM | 1.17 | 37.7 nM | 517 nM | CCC[C@H](NC(=O)[C@H](CCC(N)=O)NC(=O)[C@H](CCCCN)NC(=O)[C@H](CCCNC(=N)N)NC(=O)[C@H](Cc1ccc(O)cc1)NC(=O)[C@H](CCCNC(=N)N)NC(=O)[C@H](CO)NC(=O)[C@H](Cc1ccc(O)cc1)NC(=O)[C@H](CO)NC(=O)[C@H](CC(=O)O)NC(=O)[C@@H](NC(=O)[C@H](Cc1ccccc1)NC(=O)[C@@H](NC(=O)[C@@H](C)NC(=O)[C@H](CC(=O)O)NC(=O)[C@@H](CO)NC(=O)[C@@H](N)Cc1c[nH]cn1)[C@@H](C)CC)[C@@H](C)O)C(=O)N[C@@H](C)C(=O)N[C@H](C(=O)N[C@@H](CCCCN)C(=O)N[C@@H](CCCCN)C(=O)N[C@@H](Cc1ccc(O)cc1)C(=O)N[C@@H](CC(C)C)C(=O)N[C@@H](C)C(=O)N[C@@H](C)C(=O)N[C@H](C(=O)N[C@@H](CC(C)C)C(=O)N[C@@H](CO[C@@H]1O[C@H](CO)[C@@H](O)[C@H](O)[C@H]1O)C(N)=O)C(C)C)C(C)C [CRA3021] | 16.01 | 13.71 |
| 65% | 72% | 74% | 847 nM | 0.77 | 649 nM | > 2500 nM | CCCC[C@@H](NC(=O)CNC(=O)[C@H](CC(=O)O)NC(=O)[C@@H](CO)NC(=O)[C@@H](N)Cc1c[nH]cn1)C(=O)N[C@@H](Cc1ccccc1)C(=O)N[C@H](C(=O)N[C@@H](CC(=O)O)C(=O)N[C@@H](CO)C(=O)N[C@@H](Cc1ccc(O)cc1)C(=O)N[C@@H](CO)C(=O)N[C@@H](CCCNC(=N)N)C(=O)N[C@@H](Cc1ccc(O)cc1)C(=O)N[C@@H](CCCNC(=N)N)C(=O)N[C@@H](CCCCN)C(=O)N[C@@H](CCC(N)=O)C(=O)N[C@@H](CCC)C(=O)N[C@@H](C)C(=O)N[C@H](C(=O)N[C@@H](CCCCN)C(=O)N[C@@H](CCCCN)C(=O)N[C@@H](Cc1ccc(O)cc1)C(=O)N[C@@H](CC(C)C)C(=O)N[C@@H](C)C(=O)N[C@@H](C)C(=O)N[C@H](C(=O)N[C@@H](CC(C)C)C(=O)N[C@@H](CO[C@@H]1O[C@H](CO)[C@@H](O)[C@H](O)[C@H]1O)C(N)=O)C(C)C)C(C)C)[C@@H](C)O [CRA3019] | – | – |
